Assay results as given in patent US9821173B2, “Anti-cancer agents and methods of use” (Case Western Reserve University, priority 2013, dated 2017).

How the values were obtained:
[1] = test system: HCT-116; experiment: Cell proliferation assay (cell-titer blue); type: cell-based; conditions: cell viability, up to 48 hours, read-out: IC50 HCT116
Experimental: (§1) HeLa, MCF-7, HCT-116, and CEM-C7 were obtained from the American Type Culture Collection (Manassas, Va., USA). All adherent cell lines were maintained in Dulbecco's modified Eagle's medium (Mediatech) with 100 U/ml penicillin (Invitrogen), 100 μg/ml streptomycin (Invitrogen), 0.25 μg/ml amphotericin B (Invitrogen), and 10% fetal bovine serum (USA Scientific) and incubated at 37° C. with 5% CO2. CEM cells were maintained in RPMI-1640 media supplemented with 100 U/ml penicillin, 100 μg/ml streptomycin, 0.25 μg/ml amphotericin B, and 10% fetal bovine serum and incubated at 37° C. with […].
(§2) Cells were plated at a density of 7,000-13,000/well in 200 μl of media overnight in a 96-well plate. Each (phosphine)gold(I)-indole was added to wells in a dose-dependent manner (0.01-100 μM). Cells were treated with compounds for variable time periods (8-48 hours). With adherent cell lines, medium was removed from the wells and then 100 μl of fresh medium was added into each well followed by the addition of 20 μl of cell titer-blue reagent (Promega). Cells were incubated with reagent for 1-4 hrs and the optical density of samples was read at 560 nm using a microplate reader. The background absorbance of dye with media was subtracted from each sample. Cell viability was then normalized against cells treated with DMSO. IC50 values were obtained using a fit of the data to Equation 1: Y=100%/[1+(IC50/Inhibitor)] (1)
(§3) where y is the fraction of viable cells, IC50 is the concentration of inhibitor that inhibits 50% cell growth, and Inhibitor is the concentration of compound tested.
(§4) The cellular effects of these (phosphine)gold(I) indoles were tested against several cancer cell lines including HeLa (cervical cancer), MCF-7 (breast cancer), HCT-116 (colon cancer), and CEM-C7 (leukemia). The dose-dependency of each modified indole on cell viability was assessed using a cell-titer blue assay as previously described. In these experiments, cells were exposed to variable concentrations of each (phosphine)gold(I) indole (0.01-100 μM) for up to 48 hours and then assessed for viability.

[2] = test system: MCF-7; experiment: Cell proliferation assay (cell-titer blue); type: cell-based; conditions: cell viability, up to 48 hours
Experimental: as §1, §2, §3, §4

[3] = test system: HeLa; experiment: Cell proliferation assay (cell-titer blue); type: cell-based; conditions: cell viability, cell-titer blue, up to 48 hours
Experimental: as §1, §2, §3, §4

[4] = molecular target: T1, PIM1 (Homo sapiens, UniProt P11309); experiment: Kinase inhibition screening (Luceome); type: biochemical; conditions: 10 μM
T1 construct: purchased Luceome Biotechnologies (Tucson, Ariz.)
Excerpt: (§5) It is well established that dysfunctional and unregulated kinase activity plays significant roles in cancer initiation and progression. […] Inspection of the data provides several interesting observations. […] These inhibitory effects at this concentration are consistent with their measured IC50 values that are also in the μM range (Table 1). In addition, several kinases display overlapping inhibitory responses to both gold(I) compounds. Many of these are of particular interest since they are involved in cancer initiation and/or progression. For example, the Aurora kinase family members, Aurora A and Aurora B, as well as the MARK2 and MARK3 kinases function during mitosis to regulate cell division. These kinases are important therapeutic targets as their activities are often deregulated in many types of cancers. Other kinases such as RPS6KA3 and MLK3 are involved in the MAP kinase and JNK pathways which are also important in cancer progression.

[5] = molecular target: T2, PKD2 (Homo sapiens, UniProt Q9BZL6); experiment: Kinase inhibition screening (Luceome); type: biochemical; conditions: 10 μM
T2 construct: purchased Luceome Biotechnologies (Tucson, Ariz.)
Excerpt: as §5

[6] = molecular target: T3, PIM2 (Homo sapiens, UniProt Q9P1W9); experiment: Kinase inhibition screening (Luceome); type: biochemical; conditions: 10 μM
T3 construct: purchased Luceome Biotechnologies (Tucson, Ariz.)
Excerpt: as §5

[7] = molecular target: T4, P38-γ (Homo sapiens, UniProt P53778); experiment: Kinase inhibition screening (Luceome); type: biochemical; conditions: 10 μM
T4 construct: purchased Luceome Biotechnologies (Tucson, Ariz.)
Excerpt: as §5

[8] = molecular target: T5, BLK (Homo sapiens, UniProt P51451); experiment: Kinase inhibition screening (Luceome); type: biochemical; conditions: 10 μM
T5 construct: purchased Luceome Biotechnologies (Tucson, Ariz.)
Excerpt: as §5

[9] = molecular target: T6, PKC-ε (Homo sapiens, UniProt Q02156); experiment: Kinase inhibition screening (Luceome); type: biochemical; conditions: 10 μM
T6 construct: purchased Luceome Biotechnologies (Tucson, Ariz.)
Excerpt: as §5

[10] = molecular target: T7, RPS6KA3 (Homo sapiens, UniProt P51812); experiment: Kinase inhibition screening (Luceome); type: biochemical; conditions: 10 μM
T7 construct: purchased Luceome Biotechnologies (Tucson, Ariz.)
T7 sequence (P51812 whole entry): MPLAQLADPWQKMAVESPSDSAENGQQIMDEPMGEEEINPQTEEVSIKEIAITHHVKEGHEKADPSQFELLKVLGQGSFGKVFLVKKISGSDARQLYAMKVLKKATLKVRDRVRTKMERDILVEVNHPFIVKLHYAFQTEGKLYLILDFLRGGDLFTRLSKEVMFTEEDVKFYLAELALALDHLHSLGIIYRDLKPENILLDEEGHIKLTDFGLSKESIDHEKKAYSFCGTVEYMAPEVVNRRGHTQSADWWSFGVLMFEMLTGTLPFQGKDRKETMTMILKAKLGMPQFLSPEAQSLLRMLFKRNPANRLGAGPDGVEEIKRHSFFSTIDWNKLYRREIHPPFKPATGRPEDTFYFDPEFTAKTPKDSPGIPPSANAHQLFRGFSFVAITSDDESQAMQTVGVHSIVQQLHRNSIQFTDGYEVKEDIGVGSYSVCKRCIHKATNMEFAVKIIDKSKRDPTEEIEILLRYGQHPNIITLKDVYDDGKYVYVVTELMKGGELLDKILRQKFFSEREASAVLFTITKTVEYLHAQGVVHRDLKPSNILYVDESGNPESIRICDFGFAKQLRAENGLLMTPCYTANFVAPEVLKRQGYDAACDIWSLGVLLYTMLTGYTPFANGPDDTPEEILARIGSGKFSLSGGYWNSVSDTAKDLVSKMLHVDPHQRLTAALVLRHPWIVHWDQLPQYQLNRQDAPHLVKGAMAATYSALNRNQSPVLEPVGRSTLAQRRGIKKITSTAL
Excerpt: as §5

[11] = molecular target: T8, VEGFR2 (Homo sapiens, UniProt P35968); experiment: Kinase inhibition screening (Luceome); type: biochemical; conditions: 10 μM
T8 construct: purchased Luceome Biotechnologies (Tucson, Ariz.)
Excerpt: as §5

[12] = molecular target: T9, CLK2 (Homo sapiens, UniProt P49760); experiment: Kinase inhibition screening (Luceome); type: biochemical; conditions: 10 μM
T9 construct: purchased Luceome Biotechnologies (Tucson, Ariz.)
T9 sequence (P49760 whole entry): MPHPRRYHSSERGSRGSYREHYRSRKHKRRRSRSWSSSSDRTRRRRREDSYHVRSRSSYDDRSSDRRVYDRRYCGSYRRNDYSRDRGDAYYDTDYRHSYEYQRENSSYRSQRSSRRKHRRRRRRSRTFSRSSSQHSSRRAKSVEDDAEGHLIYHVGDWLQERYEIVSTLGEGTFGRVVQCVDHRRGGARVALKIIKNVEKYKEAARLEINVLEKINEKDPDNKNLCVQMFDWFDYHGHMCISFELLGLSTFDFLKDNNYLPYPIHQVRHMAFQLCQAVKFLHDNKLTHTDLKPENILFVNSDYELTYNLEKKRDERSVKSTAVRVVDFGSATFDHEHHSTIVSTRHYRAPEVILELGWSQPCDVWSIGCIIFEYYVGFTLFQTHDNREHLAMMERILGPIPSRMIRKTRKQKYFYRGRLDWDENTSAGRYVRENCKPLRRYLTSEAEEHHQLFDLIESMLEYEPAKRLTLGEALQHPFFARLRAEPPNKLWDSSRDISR
Excerpt: as §5

[13] = molecular target: T10, CAMKD2B (Homo sapiens, UniProt Q13554); experiment: Kinase inhibition screening (Luceome); type: biochemical; conditions: 10 μM
T10 construct: purchased Luceome Biotechnologies (Tucson, Ariz.)
Excerpt: as §5

[14] = molecular target: T11, MET (Homo sapiens, UniProt P08581); experiment: Kinase inhibition screening (Luceome); type: biochemical; conditions: 10 μM
T11 construct: purchased Luceome Biotechnologies (Tucson, Ariz.)
Excerpt: as §5

[15] = molecular target: T12, YES1 (Homo sapiens, UniProt P07947); experiment: Kinase inhibition screening (Luceome); type: biochemical; conditions: 10 μM
T12 construct: purchased Luceome Biotechnologies (Tucson, Ariz.)
T12 sequence (P07947 whole entry): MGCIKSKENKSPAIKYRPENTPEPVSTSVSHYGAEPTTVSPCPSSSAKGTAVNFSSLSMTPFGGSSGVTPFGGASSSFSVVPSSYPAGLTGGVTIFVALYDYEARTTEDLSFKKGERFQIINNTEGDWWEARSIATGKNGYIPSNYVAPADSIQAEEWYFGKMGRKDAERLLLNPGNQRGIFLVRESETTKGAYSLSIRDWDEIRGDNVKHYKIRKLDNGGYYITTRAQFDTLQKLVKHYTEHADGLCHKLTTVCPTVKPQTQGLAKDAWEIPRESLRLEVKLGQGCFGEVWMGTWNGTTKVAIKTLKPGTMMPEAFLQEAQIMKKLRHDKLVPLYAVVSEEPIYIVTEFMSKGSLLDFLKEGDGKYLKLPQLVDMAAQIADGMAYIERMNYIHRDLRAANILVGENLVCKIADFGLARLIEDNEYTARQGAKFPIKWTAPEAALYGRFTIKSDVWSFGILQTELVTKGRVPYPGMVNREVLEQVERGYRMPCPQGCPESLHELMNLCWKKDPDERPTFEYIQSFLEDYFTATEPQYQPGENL
Excerpt: as §5

[16] = molecular target: T13, CHEK1 (Homo sapiens, UniProt O14757); experiment: Kinase inhibition screening (Luceome); type: biochemical; conditions: 10 μM
T13 construct: purchased Luceome Biotechnologies (Tucson, Ariz.)
T13 sequence (O14757 whole entry): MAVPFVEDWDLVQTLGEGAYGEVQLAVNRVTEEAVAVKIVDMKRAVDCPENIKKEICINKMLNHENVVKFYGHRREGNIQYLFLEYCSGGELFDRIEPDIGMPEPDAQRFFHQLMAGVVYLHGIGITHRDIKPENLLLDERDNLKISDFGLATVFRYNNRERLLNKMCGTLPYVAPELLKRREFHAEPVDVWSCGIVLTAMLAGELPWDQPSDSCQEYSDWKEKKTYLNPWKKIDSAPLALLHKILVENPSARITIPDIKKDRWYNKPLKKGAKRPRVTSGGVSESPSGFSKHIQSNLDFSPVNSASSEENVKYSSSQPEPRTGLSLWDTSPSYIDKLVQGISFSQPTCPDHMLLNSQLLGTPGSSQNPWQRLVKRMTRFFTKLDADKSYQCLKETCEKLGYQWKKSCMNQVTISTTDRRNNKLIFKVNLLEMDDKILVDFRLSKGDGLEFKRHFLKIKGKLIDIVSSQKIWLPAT
Excerpt: as §5

[17] = molecular target: T14, CLK1 (Homo sapiens, UniProt P49759); experiment: Kinase inhibition screening (Luceome); type: biochemical; conditions: 10 μM
T14 construct: purchased Luceome Biotechnologies (Tucson, Ariz.)
Excerpt: as §5

[18] = molecular target: T15, CAMK1 (Homo sapiens, UniProt Q14012); experiment: Kinase inhibition screening (Luceome); type: biochemical; conditions: 10 μM
T15 construct: purchased Luceome Biotechnologies (Tucson, Ariz.)
T15 sequence (Q14012 whole entry): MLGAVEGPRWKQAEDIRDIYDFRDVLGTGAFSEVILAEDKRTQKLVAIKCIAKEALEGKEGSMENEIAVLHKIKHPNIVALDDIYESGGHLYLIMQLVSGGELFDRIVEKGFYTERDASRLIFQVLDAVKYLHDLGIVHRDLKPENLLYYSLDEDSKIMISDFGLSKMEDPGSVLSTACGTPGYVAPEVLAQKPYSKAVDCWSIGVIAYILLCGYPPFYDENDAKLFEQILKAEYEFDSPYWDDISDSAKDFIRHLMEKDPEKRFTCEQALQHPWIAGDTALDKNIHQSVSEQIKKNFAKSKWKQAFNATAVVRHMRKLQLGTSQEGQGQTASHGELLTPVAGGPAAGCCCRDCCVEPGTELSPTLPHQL
Excerpt: as §5

[19] = molecular target: T16, AMPK-α2 (Homo sapiens, UniProt P54646); experiment: Kinase inhibition screening (Luceome); type: biochemical; conditions: 10 μM
T16 construct: purchased Luceome Biotechnologies (Tucson, Ariz.)
Excerpt: as §5

[20] = molecular target: T17, DDR2 (Homo sapiens, UniProt Q16832); experiment: Kinase inhibition screening (Luceome); type: biochemical; conditions: 10 μM
T17 construct: purchased Luceome Biotechnologies (Tucson, Ariz.)
Excerpt: as §5

[21] = molecular target: T18, MLK1 (Homo sapiens, UniProt P80192); experiment: Kinase inhibition screening (Luceome); type: biochemical; conditions: 10 μM
T18 construct: purchased Luceome Biotechnologies (Tucson, Ariz.)
Excerpt: as §5

[22] = molecular target: T19, PDGFRB (Homo sapiens, UniProt P09619); experiment: Kinase inhibition screening (Luceome); type: biochemical; conditions: 10 μM
T19 construct: purchased Luceome Biotechnologies (Tucson, Ariz.)
T19 sequence (P09619 33-1106): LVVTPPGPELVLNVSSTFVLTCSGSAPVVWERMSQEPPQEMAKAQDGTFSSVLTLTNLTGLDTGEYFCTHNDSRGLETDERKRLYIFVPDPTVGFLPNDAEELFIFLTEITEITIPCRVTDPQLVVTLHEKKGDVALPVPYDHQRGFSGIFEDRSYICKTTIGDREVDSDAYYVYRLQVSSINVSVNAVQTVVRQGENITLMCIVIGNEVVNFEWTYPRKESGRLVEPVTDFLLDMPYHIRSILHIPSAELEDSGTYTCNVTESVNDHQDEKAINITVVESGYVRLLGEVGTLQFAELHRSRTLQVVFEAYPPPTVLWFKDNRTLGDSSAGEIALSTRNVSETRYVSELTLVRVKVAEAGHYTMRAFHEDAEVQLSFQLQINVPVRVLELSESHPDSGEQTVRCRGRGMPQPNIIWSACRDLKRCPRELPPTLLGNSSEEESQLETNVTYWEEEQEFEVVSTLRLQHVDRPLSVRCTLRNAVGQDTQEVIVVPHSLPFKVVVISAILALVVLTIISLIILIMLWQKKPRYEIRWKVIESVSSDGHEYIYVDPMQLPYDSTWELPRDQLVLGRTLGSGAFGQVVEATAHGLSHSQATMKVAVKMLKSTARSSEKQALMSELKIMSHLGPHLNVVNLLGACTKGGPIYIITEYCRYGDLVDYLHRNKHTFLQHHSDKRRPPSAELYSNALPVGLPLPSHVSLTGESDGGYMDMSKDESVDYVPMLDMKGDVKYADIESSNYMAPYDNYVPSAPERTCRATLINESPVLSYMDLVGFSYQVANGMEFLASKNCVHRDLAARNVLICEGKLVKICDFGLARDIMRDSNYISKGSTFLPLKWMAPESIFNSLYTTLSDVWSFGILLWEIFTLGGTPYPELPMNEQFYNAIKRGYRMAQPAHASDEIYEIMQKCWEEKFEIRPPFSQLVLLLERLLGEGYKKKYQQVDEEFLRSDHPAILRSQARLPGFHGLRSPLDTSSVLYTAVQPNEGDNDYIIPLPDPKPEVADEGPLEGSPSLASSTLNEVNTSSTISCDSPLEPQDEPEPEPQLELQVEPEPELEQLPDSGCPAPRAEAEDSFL
Excerpt: as §5

[23] = molecular target: T20, PKC-η (Homo sapiens, UniProt P24723); experiment: Kinase inhibition screening (Luceome); type: biochemical; conditions: 10 μM
T20 construct: purchased Luceome Biotechnologies (Tucson, Ariz.)
T20 sequence (P24723 whole entry): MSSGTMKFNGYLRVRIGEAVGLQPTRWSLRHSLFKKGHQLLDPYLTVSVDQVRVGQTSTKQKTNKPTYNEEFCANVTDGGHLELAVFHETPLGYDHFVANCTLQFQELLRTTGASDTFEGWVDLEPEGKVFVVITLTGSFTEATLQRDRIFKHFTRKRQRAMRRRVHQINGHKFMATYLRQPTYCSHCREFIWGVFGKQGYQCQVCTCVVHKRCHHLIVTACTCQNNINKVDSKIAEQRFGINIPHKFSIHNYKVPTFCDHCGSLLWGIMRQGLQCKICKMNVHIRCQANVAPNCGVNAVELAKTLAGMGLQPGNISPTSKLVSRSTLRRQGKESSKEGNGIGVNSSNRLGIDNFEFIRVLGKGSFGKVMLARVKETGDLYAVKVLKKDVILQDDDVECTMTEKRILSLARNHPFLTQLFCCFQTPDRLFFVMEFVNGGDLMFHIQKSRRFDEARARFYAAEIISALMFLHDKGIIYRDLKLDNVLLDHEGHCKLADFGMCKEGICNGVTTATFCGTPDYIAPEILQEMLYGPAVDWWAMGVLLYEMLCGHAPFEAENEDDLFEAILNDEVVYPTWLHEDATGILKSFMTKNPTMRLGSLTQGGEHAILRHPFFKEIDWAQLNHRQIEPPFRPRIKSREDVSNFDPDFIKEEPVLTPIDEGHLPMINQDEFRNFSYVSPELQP
Excerpt: as §5

[24] = molecular target: T21, AMPK-α1 (Homo sapiens, UniProt Q13131); experiment: Kinase inhibition screening (Luceome); type: biochemical; conditions: 10 μM
T21 construct: purchased Luceome Biotechnologies (Tucson, Ariz.)
T21 sequence (Q13131 whole entry): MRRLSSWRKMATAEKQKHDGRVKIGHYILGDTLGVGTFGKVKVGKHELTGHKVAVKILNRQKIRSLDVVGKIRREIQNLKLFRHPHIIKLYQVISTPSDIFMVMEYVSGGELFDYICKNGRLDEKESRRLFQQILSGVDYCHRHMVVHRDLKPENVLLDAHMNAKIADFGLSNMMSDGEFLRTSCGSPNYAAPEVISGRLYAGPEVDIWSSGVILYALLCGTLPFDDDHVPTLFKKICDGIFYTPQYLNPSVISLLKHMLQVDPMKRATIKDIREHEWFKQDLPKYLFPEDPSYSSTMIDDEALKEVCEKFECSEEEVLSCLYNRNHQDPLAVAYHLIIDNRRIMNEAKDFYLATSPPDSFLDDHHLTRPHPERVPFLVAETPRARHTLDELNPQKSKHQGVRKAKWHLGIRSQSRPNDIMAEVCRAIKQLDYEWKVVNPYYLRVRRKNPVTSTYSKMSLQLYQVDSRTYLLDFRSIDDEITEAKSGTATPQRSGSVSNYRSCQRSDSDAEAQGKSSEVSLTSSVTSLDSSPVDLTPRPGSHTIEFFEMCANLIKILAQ
Excerpt: as §5

[25] = test system: HeLa cells; experiment: Fluorescence microscopy, propidium iodide uptake and annexin V staining; type: cell-based; conditions: 50 μM; for annexin V staining: 12 hours; for PI staining / uptake: 24 hours
Experimental: Cells were plated at 75,000-125,000/ml for 24 hours. […] Alexa fluro 488 Annexin V and Propidium Iodide were added to each well and images were taken on Leica CTR 6500 microscope using green (480/40 nm) and red (560/40 nm) excitation band pass filters.

SMILES	IC50 [1] [µM]	IC50 [2] [µM]	IC50 [3] [µM]	% Inhibition PIM1 [4] [%]	% Inhibition PKD2 [5] [%]	% Inhibition PIM2 [6] [%]	% Inhibition P38-γ [7] [%]	% Inhibition BLK [8] [%]	% Inhibition PKC-ε [9] [%]	% Inhibition RPS6KA3 [10] [%]	% Inhibition VEGFR2 [11] [%]	% Inhibition CLK2 [12] [%]	% Inhibition CAMKD2B [13] [%]	% Inhibition MET [14] [%]	% Inhibition YES1 [15] [%]	% Inhibition CHEK1 [16] [%]	% Inhibition CLK1 [17] [%]	% Inhibition CAMK1 [18] [%]	% Inhibition AMPK-α2 [19] [%]	% Inhibition DDR2 [20] [%]	further results
CC(C)(C)OC(=O)n1ccc2c[c]([Au-][P+](c3ccccc3)(c3ccccc3)c3ccccc3)ccc21 [Compound 3, 5-{Triphenylphosphine aurate(I)}-tert-butyl1H-indole-1-carboxylate]	11.5	16.2	2.5	0	0	0	0	0	0	16.7	0	0	0	15.1	0	0	0	0	0	0	% Inhibition MLK1 [21]: 32.5%; % Inhibition PDGFRB [22]: 8.1%; % Inhibition PKC-η [23]: 3.2%; % Inhibition AMPK-α1 [24]: 0%; annexin V staining [25]: induce early stage apoptosis; PI staining / uptake [25]: significant PI uptake is not observed
CC(C)(C)OC(=O)n1ccc2c[c]([Au-][P+](C3CCCCC3)(C3CCCCC3)C3CCCCC3)ccc21 [Compound 4, 5-{Tricyclohexylphosphine aurate(I)}-tert-butyl1H-indole-1-carboxylate]	22.8	34.4	16.2	10.6	3.8	8.7	0	0	5.9	34.9	5.8	0	0	23.3	31.7	0	0	0	0	0	% Inhibition MLK1 [21]: 42.2%; % Inhibition PDGFRB [22]: 15.2%; % Inhibition PKC-η [23]: 0%; % Inhibition AMPK-α1 [24]: 0%; annexin V staining [25]: induce early stage apoptosis; PI staining / uptake [25]: more intense PI staining
